Experimental data reported in PubChem BioAssay (NCI).
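Step 1: Grow cells in 96-well plates. Step 2: Expose to compound for 48 hours at 5 concentrations. Step 3: Interpolate endpoints linearly; if unreached, use highest concentration. GI50 = concentration required for 50% inhibition of growth. TGI is the concentration that stops growth completely.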

What was measured:
Assay in all cases: NCI tumour cell line growth inhibition, 48 h; in the data active = GI50 below about 0.43 µM; inactive = the rest
SF-295 CNS = system: SF-295 CNS
HCC-2998 colon = system: HCC-2998 colon
MDA-MB-435 = system: MDA-MB-435
UACC-257 melanoma = system: UACC-257 melanoma
SK-OV-3 ovarian = system: SK-OV-3 ovarian
SW-620 colon = system: SW-620 colon
OVCAR-4 ovarian = system: OVCAR-4 ovarian
HL-60(TB) leukemia = system: HL-60(TB) leukemia
NCI-H522 lung = system: NCI-H522 lung
OVCAR-3 ovarian = system: OVCAR-3 ovarian
SF-539 CNS = system: SF-539 CNS
786-0 renal = system: 786-0 renal
CCRF-CEM leukemia = system: CCRF-CEM leukemia
HOP-92 NSCLC = system: HOP-92 NSCLC
SK-MEL-2 melanoma = system: SK-MEL-2 melanoma
CAKI-1 renal = system: CAKI-1 renal
SNB-75 CNS = system: SNB-75 CNS
K-562 leukemia = system: K-562 leukemia
KM12 colon = system: KM12 colon
HCT-15 colon = system: HCT-15 colon
OVCAR-5 ovarian = system: OVCAR-5 ovarian
MDA-MB-231 breast = system: MDA-MB-231 breast
NCI-H460 lung = system: NCI-H460 lung
MALME-3M melanoma = system: MALME-3M melanoma
M14 melanoma = system: M14 melanoma
ACHN renal = system: ACHN renal
SR leukemia = system: SR leukemia
SK-MEL-5 melanoma = system: SK-MEL-5 melanoma
TK-10 renal = system: TK-10 renal
MCF7 breast = system: MCF7 breast
HS 578T breast = system: HS 578T breast
RXF 393 renal = system: RXF 393 renal
COLO 205 colon = system: COLO 205 colon
NCI/ADR-RES ovarian = system: NCI/ADR-RES ovarian
LOX IMVI melanoma = system: LOX IMVI melanoma
T-47D breast = system: T-47D breast
IGROV1 ovarian = system: IGROV1 ovarian
A498 renal = system: A498 renal
PC-3 prostate = system: PC-3 prostate
MOLT-4 leukemia = system: MOLT-4 leukemia
SN12C renal = system: SN12C renal
HOP-62 NSCLC = system: HOP-62 NSCLC
SNB-19 CNS = system: SNB-19 CNS
OVCAR-8 ovarian = system: OVCAR-8 ovarian
A549 NSCLC = system: A549 NSCLC
DU-145 prostate = system: DU-145 prostate
MDA-N = system: MDA-N
SF-268 CNS = system: SF-268 CNS
HT29 colon = system: HT29 colon
HCT-116 colon = system: HCT-116 colon
NCI-H226 lung = system: NCI-H226 lung
NCI-H23 lung = system: NCI-H23 lung
EKVX NSCLC = system: EKVX NSCLC
SK-MEL-28 melanoma = system: SK-MEL-28 melanoma
RPMI-8226 leukemia = system: RPMI-8226 leukemia
U251 CNS = system: U251 CNS
UO-31 renal = system: UO-31 renal
UACC-62 melanoma = system: UACC-62 melanoma
BT-549 breast = system: BT-549 breast

C[C@@H]1OCC(O)C([C@H]2OC(c3ccccc3)=N[C@H]2CO)O1 (stereo partly drawn)
> 100 µM: TGI (SF-295 CNS) | TGI (HCC-2998 colon) | TGI (MDA-MB-435) | TGI (UACC-257 melanoma) | TGI (SK-OV-3 ovarian) | TGI (SW-620 colon) | TGI (OVCAR-4 ovarian) | TGI (HL-60(TB) leukemia) | TGI (NCI-H522 lung) | TGI (OVCAR-3 ovarian) | TGI (SF-539 CNS) | TGI (786-0 renal) | TGI (CCRF-CEM leukemia) | TGI (HOP-92 NSCLC) | TGI (SK-MEL-2 melanoma) | TGI (CAKI-1 renal) | TGI (SNB-75 CNS) | TGI (K-562 leukemia) | TGI (KM12 colon) | TGI (HCT-15 colon) | TGI (OVCAR-5 ovarian) | TGI (MDA-MB-231 breast) | TGI (NCI-H460 lung) | TGI (MALME-3M melanoma) | TGI (M14 melanoma) | TGI (ACHN renal) | TGI (SR leukemia) | TGI (SK-MEL-5 melanoma) | TGI (TK-10 renal) | TGI (MCF7 breast) | TGI (HS 578T breast) | TGI (RXF 393 renal) | TGI (COLO 205 colon) | TGI (NCI/ADR-RES ovarian) | TGI (LOX IMVI melanoma) | TGI (T-47D breast) | TGI (IGROV1 ovarian) | TGI (A498 renal) | TGI (PC-3 prostate) | TGI (MOLT-4 leukemia) | TGI (SN12C renal) | TGI (HOP-62 NSCLC) | TGI (SNB-19 CNS) | TGI (OVCAR-8 ovarian) | TGI (A549 NSCLC) | TGI (DU-145 prostate) | TGI (MDA-N) | TGI (SF-268 CNS) | TGI (HT29 colon) | TGI (HCT-116 colon) | TGI (NCI-H226 lung) | TGI (NCI-H23 lung) | TGI (EKVX NSCLC) | TGI (SK-MEL-28 melanoma) | TGI (RPMI-8226 leukemia) | TGI (U251 CNS) | TGI (UO-31 renal) | TGI (UACC-62 melanoma)

N#C/C(=C\c1cccnc1)c1nc2ccccc2o1
inactive: GI50 (SF-295 CNS) > 100 µM | GI50 (HCC-2998 colon) > 100 µM | GI50 (MDA-MB-435) > 100 µM | GI50 (UACC-257 melanoma) > 100 µM | GI50 (SK-OV-3 ovarian) > 100 µM | GI50 (SW-620 colon) > 100 µM | GI50 (OVCAR-4 ovarian) > 100 µM | GI50 (HL-60(TB) leukemia) > 100 µM | GI50 (NCI-H522 lung) > 100 µM | GI50 (OVCAR-3 ovarian) > 100 µM | GI50 (SF-539 CNS) > 100 µM | GI50 (786-0 renal) > 100 µM | GI50 (HOP-92 NSCLC) 40.8 µM | GI50 (BT-549 breast) > 100 µM | GI50 (SK-MEL-2 melanoma) > 100 µM | GI50 (CAKI-1 renal) > 100 µM | GI50 (SNB-75 CNS) > 100 µM | GI50 (K-562 leukemia) > 100 µM | GI50 (KM12 colon) > 100 µM | GI50 (HCT-15 colon) > 100 µM | GI50 (OVCAR-5 ovarian) > 100 µM | GI50 (MDA-MB-231 breast) > 100 µM | GI50 (NCI-H460 lung) > 100 µM | GI50 (MALME-3M melanoma) 21.8 µM | GI50 (M14 melanoma) > 100 µM | GI50 (ACHN renal) > 100 µM | GI50 (SR leukemia) > 100 µM | GI50 (SK-MEL-5 melanoma) > 100 µM | GI50 (TK-10 renal) > 100 µM | GI50 (MCF7 breast) > 100 µM | GI50 (HS 578T breast) > 100 µM | GI50 (RXF 393 renal) > 100 µM | GI50 (COLO 205 colon) > 100 µM | GI50 (NCI/ADR-RES ovarian) > 100 µM | GI50 (LOX IMVI melanoma) > 100 µM | GI50 (T-47D breast) > 100 µM | GI50 (IGROV1 ovarian) > 100 µM | GI50 (A498 renal) 66.4 µM | GI50 (PC-3 prostate) > 100 µM | GI50 (MOLT-4 leukemia) > 100 µM | GI50 (SN12C renal) > 100 µM | GI50 (HOP-62 NSCLC) > 100 µM | GI50 (SNB-19 CNS) > 100 µM | GI50 (OVCAR-8 ovarian) > 100 µM | GI50 (A549 NSCLC) > 100 µM | GI50 (DU-145 prostate) > 100 µM | GI50 (SF-268 CNS) > 100 µM | GI50 (HT29 colon) > 100 µM | GI50 (HCT-116 colon) > 100 µM | GI50 (NCI-H226 lung) > 100 µM | GI50 (NCI-H23 lung) > 100 µM | GI50 (EKVX NSCLC) > 100 µM | GI50 (SK-MEL-28 melanoma) > 100 µM | GI50 (RPMI-8226 leukemia) > 100 µM | GI50 (U251 CNS) > 100 µM | GI50 (UO-31 renal) 43.1 µM | GI50 (UACC-62 melanoma) > 100 µM
> 100 µM: TGI (SF-295 CNS) | TGI (HCC-2998 colon) | TGI (MDA-MB-435) | TGI (UACC-257 melanoma) | TGI (SK-OV-3 ovarian) | TGI (SW-620 colon) | TGI (OVCAR-4 ovarian) | TGI (HL-60(TB) leukemia) | TGI (NCI-H522 lung) | TGI (OVCAR-3 ovarian) | TGI (SF-539 CNS) | TGI (786-0 renal) | TGI (HOP-92 NSCLC) | TGI (BT-549 breast) | TGI (SK-MEL-2 melanoma) | TGI (CAKI-1 renal) | TGI (SNB-75 CNS) | TGI (K-562 leukemia) | TGI (KM12 colon) | TGI (HCT-15 colon) | TGI (OVCAR-5 ovarian) | TGI (MDA-MB-231 breast) | TGI (NCI-H460 lung) | TGI (MALME-3M melanoma) | TGI (M14 melanoma) | TGI (ACHN renal) | TGI (SR leukemia) | TGI (SK-MEL-5 melanoma) | TGI (TK-10 renal) | TGI (MCF7 breast) | TGI (HS 578T breast) | TGI (RXF 393 renal) | TGI (COLO 205 colon) | TGI (NCI/ADR-RES ovarian) | TGI (LOX IMVI melanoma) | TGI (T-47D breast) | TGI (IGROV1 ovarian) | TGI (A498 renal) | TGI (PC-3 prostate) | TGI (MOLT-4 leukemia) | TGI (SN12C renal) | TGI (HOP-62 NSCLC) | TGI (SNB-19 CNS) | TGI (OVCAR-8 ovarian) | TGI (A549 NSCLC) | TGI (DU-145 prostate) | TGI (SF-268 CNS) | TGI (HT29 colon) | TGI (HCT-116 colon) | TGI (NCI-H226 lung) | TGI (NCI-H23 lung) | TGI (EKVX NSCLC) | TGI (SK-MEL-28 melanoma) | TGI (RPMI-8226 leukemia) | TGI (U251 CNS) | TGI (UO-31 renal) | TGI (UACC-62 melanoma)

C[n+]1c(-c2ccc(/C=N/Nc3ccnc(N/N=C/c4ccc(-c5cn6ccccc6[n+]5C)cc4)n3)cc2)cn2ccccc21
65.7 µM: TGI (HL-60(TB) leukemia)
73.3 µM: TGI (RPMI-8226 leukemia)
40.1 µM: TGI (SF-539 CNS)
95.8 µM: TGI (SK-MEL-28 melanoma)
> 100 µM: TGI (HCC-2998 colon) | TGI (UACC-257 melanoma) | TGI (SK-OV-3 ovarian) | TGI (SW-620 colon) | TGI (OVCAR-4 ovarian) | TGI (NCI-H522 lung) | TGI (786-0 renal) | TGI (SNB-75 CNS) | TGI (KM12 colon) | TGI (HCT-15 colon) | TGI (OVCAR-5 ovarian) | TGI (MDA-MB-231 breast) | TGI (NCI-H460 lung) | TGI (M14 melanoma) | TGI (SR leukemia) | TGI (SK-MEL-5 melanoma) | TGI (TK-10 renal) | TGI (COLO 205 colon) | TGI (NCI/ADR-RES ovarian) | TGI (T-47D breast) | TGI (IGROV1 ovarian) | TGI (PC-3 prostate) | TGI (MOLT-4 leukemia) | TGI (SN12C renal) | TGI (HOP-62 NSCLC) | TGI (SNB-19 CNS) | TGI (OVCAR-8 ovarian) | TGI (A549 NSCLC) | TGI (MDA-N) | TGI (SF-268 CNS) | TGI (HT29 colon) | TGI (HCT-116 colon) | TGI (EKVX NSCLC)
79.6 µM: TGI (SF-295 CNS)
45.4 µM: TGI (UO-31 renal)
54.4 µM: TGI (ACHN renal)
93.1 µM: TGI (HS 578T breast)
